Measured values published in ChEMBL document CHEMBL1201862, “PubChem BioAssay data set” (2004).
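Grown in 96-well plates, cells were treated for 48 hours with each compound at five concentrations. Insufficient inhibition: endpoint recorded as highest concentration tested. GI50 = concentration required for 50% inhibition of growth.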 Active and inactive are the calls of the source. Rule as the data show it: active = GI50 up to about 1.1 µM and inactive = higher.

Columns and labels:
Assay in all cases: growth of human tumour cells (NCI), 48 h
RXF 631 = tested on: RXF 631
MDA-MB-231 = tested on: MDA-MB-231
BT-549 = tested on: BT-549
PC-3 = tested on: PC-3
MDA-N = tested on: MDA-N
T47D = tested on: T47D
Hs-578T = tested on: Hs-578T
LXFL 529 = tested on: LXFL 529

Measured: GI50

COc1ccc(C2C(C(=O)O)=C(CO)Oc3cc4c(cc32)OCO4)cc1 (configuration not stated)
inactive: RXF 631 > 100 µM

O=c1[nH]nc(NCc2ccccc2)c2nnn(Cc3ccccc3)c12
inactive: MDA-MB-231 > 100 µM | BT-549 > 100 µM | PC-3 > 100 µM | MDA-N > 100 µM

NC(CCOCCP(=O)(O)O)C(=O)O (configuration not stated)
inactive: MDA-MB-231 > 100 µM | T47D 57.7 µM | BT-549 > 100 µM | Hs-578T > 100 µM | PC-3 > 100 µM | MDA-N > 100 µM

Cc1n[nH]c(N)c1C(N)=O
inactive: LXFL 529 > 100 µM
